Laboratory results published in US9669034B2, “4-aryl-N-phenyl-1,3,5-triazin-2-amines containing a sulfoximine group” (BAYER INTELLECTUAL PROPERTY GMBH, priority 2011, dated 2017).
≈ marks a conversion by molar mass, not a printed value. Like-named read-outs stand apart in the source and are kept apart here.

What was measured:
CDK9/CycT1 = CDK9/CycT1 (Homo sapiens (Human), UniProt P50750); experiment: CDK9/CycT1 kinase assay (TR-FRET); type: biochemical; settings: Method 1
Outline: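 Recombinant full-length His-tagged human CDK9/CycT1, insect-cell expressed and Ni-NTA purified. Substrate is a biotinylated peptide (biotin-Ttds-linked). Kinase inhibition is read out by TR-FRET.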

CDK2/CycE = CDK2/CycE (Homo sapiens (Human), UniProt P24941); experiment: CDK2/CycE kinase assay (TR-FRET); type: biochemical; settings: Method 2
Outline: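 Enzyme was GST-tagged human CDK2 with GST-tagged human CycE, expressed in Sf9 insect cells and glutathione-affinity purified. The kinase reaction used a biotinylated peptide substrate, with inhibition measured by TR-FRET.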

[1] = tested on: HeLa human cervical tumour cells; experiment: Proliferation assay (crystal violet), HeLa; type: cell-based; settings: Method 3, read-out: Inhibition of HeLa cell proliferation, IC50
Outline: (§1)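 Cells were seeded at 3000/well (NCI-H460, HeLa), 5000/well (HeLa-MaTu-ADR) or 1500/well (Caco-2) in medium with 10% FCS. After 24 h, compounds ([…], 0.5% DMSO) were added for 4 days. Crystal violet absorbance at 595 nm was normalized to a zero-point plate and untreated cells; IC50 came from a 4-parameter fit.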

[2] = Equilibrium shake flask solubility assay; type: physicochemical; settings: pH 6.5, equilibrium shake flask method; for solubility thermodynamic at 24 h: phosphate buffer, pH 6.5, aqueous buffer, thermodynamic from solid, water
Protocol: 4. Equilibrium Shake Flask Solubility Assay:
The thermodynamic solubility of compounds in water was determined by an equilibrium shake flask method (see for example: E. H. Kerns, L. Di: Drug-like Properties: Concepts, Structure Design and Methods, 276-286, Burlington, Mass., Academic Press, 2008). A saturated solution of the drug was prepared and the solution was mixed for 24 h to ensure that equilibrium was reached. The solution was centrifuged to remove the insoluble fraction and the concentration of the compound in solution was determined using a standard calibration curve.
To prepare the sample, 2 mg solid compound was weighed in a 4 mL glass vial. 1 mL phosphate buffer pH 6.5 was added. The suspension was stirred for 24 hrs at room temperature. The solution was centrifuged afterwards. To prepare the sample for the standard calibration, 2 mg solid sample was dissolved in 30 mL acetonitrile. After sonification the solution was diluted with water to 50 mL. Sample and standards were quantified by HPLC with UV-detection. For each sample two injection volumes (5 and 50 μl) in triplicates were made. Three injection volumes (5 μl, 10 μl and 20 μl) were made for the standard.
Chromatographic Conditions:
The areas of sample- and standard injections as well as the calculation of the solubility value (in mg/l) were determined by using HPLC software (Waters Empower 2 FR).

[3] = tested on: HeLa-MaTu-ADR, multidrug-resistant human cervical carcinoma cells; experiment: Proliferation assay (crystal violet), HeLa-MaTu-ADR; type: cell-based; settings: Method 3, read-out: Inhibition of HeLa/MaTu/ADR cell proliferation, IC50
Outline: as §1

[4] = tested on: NCI-H460, human non-small cell lung carcinoma cells; experiment: Proliferation assay (crystal violet), NCI-H460; type: cell-based; settings: Method 3, read-out: Inhibition of NCI-H460 cell proliferation, IC50
Outline: as §1

[5] = tested on: DU145, hormone-independent human prostate carcinoma cells; experiment: Proliferation assay (crystal violet), DU145; type: cell-based; settings: Method 3, read-out: Inhibition of DU145 cell proliferation, IC50
Outline: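 DU145 hormone-independent human prostate carcinoma cells (ATCC HTB-81) were seeded at 5000 cells/well in 96-well plates in 200 μL growth medium with 10% fetal calf serum. After 24 hours, a zero-point plate was stained. The other plates got fresh medium containing test substances ([…], 0.5% dimethylsulfoxide) and were incubated for 4 days.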

[6] = tested on: Caco-2 human colorectal carcinoma; experiment: Proliferation assay (crystal violet), Caco-2; type: cell-based; settings: Method 3, read-out: Inhibition of Caco-2 cell proliferation, IC50
Outline: as §1

[7] = tested on: B16F10 mouse melanoma cells; experiment: Proliferation assay (crystal violet), B16F10; type: cell-based; settings: Method 3, read-out: Inhibition of B16F10 cell proliferation, IC50
Outline: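 B16F10 mouse melanoma cells (ATCC CRL-6475) were seeded at 1000 cells/well into 96-well plates in 200 μL growth medium containing 10% fetal calf serum. After 24 hours, one zero-point plate was stained with crystal violet. The remaining plates got fresh medium with test substances (0 M and […], 0.5% dimethylsulfoxide) and were incubated for 4 days.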

[8] = Homo sapiens, NCI-H460, NCI-H460 cells
[9] = Homo sapiens, DU-145, DU145 cells
[10] = Homo sapiens, Caco-2, Caco-2 cells
[11] = Mus musculus, B16-F10, B16F10 cells

Chain of CDK9/CycT1 (P50750 whole entry): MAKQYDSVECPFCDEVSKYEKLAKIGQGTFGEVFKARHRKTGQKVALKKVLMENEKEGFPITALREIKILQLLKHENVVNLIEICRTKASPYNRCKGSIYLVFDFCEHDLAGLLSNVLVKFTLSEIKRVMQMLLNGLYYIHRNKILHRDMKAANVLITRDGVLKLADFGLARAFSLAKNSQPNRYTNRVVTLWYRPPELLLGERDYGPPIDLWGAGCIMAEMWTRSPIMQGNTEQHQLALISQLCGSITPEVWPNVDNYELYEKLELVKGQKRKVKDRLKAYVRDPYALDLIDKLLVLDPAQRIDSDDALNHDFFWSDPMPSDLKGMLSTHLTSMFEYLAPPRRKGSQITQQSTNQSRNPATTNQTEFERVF
Chain of CDK9/CycT1 (O60563 whole entry partner): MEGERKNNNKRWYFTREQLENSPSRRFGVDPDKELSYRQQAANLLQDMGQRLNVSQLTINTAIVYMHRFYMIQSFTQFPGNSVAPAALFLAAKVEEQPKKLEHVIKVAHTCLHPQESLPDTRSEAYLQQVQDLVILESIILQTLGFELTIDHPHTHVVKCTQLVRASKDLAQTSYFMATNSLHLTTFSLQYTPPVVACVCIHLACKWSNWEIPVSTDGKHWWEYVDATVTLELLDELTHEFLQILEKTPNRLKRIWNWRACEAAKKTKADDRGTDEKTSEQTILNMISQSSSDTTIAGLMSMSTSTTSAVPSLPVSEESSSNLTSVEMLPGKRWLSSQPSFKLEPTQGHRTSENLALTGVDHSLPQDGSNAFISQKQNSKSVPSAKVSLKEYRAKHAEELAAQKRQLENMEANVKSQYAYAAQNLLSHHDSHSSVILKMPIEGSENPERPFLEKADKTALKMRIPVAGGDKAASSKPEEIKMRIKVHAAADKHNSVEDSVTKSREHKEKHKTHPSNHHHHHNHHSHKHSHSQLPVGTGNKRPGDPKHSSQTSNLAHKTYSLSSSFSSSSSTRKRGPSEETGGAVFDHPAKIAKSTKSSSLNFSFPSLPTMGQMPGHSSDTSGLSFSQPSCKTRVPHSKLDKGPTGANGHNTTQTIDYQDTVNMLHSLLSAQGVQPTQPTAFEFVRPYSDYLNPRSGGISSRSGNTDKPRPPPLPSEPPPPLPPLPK

IC50 (CDK9/CycT1) | IC50 (CDK2/CycE) | IC50 ([1]; Homo sapiens, HeLa) | solubility thermodynamic at 24 h [2] | SMILES | further results
19 nM | 1100 nM | 950 nM | 323 µg/mL (≈ 727 µM) | CNC(=O)N=S(C)(=O)Cc1cccc(Nc2ncnc(-c3ccc(F)cc3OC)n2)c1 (single isomer, unassigned; (-)) [Example 16, (−)-1-[(3-{[4-(4-Fluoro-2-methoxyphenyl)-1,3,5-triazin-2-yl]amino}benzyl)(methyl)oxido-λ^6-sulfanylidene]-3-methylurea] | 
91 nM | 2800 nM |  | 787 µg/mL (≈ 2030 µM) | COc1ccc(F)cc1-c1ncnc(Nc2cccc(CS(C)(=N)=O)c2)n1 (single isomer, unassigned) [Example 22, 4-(5-Fluoro-2-methoxyphenyl)-N-{3-[(S-methylsulfonimidoyl)methyl]phenyl}-1,3,5-triazin-2-amine] | 
11 nM | 1300 nM | 380 nM | 884 µg/mL (≈ 2200 µM) | CCOc1cc(F)ccc1-c1ncnc(Nc2cccc(CS(C)(=N)=O)c2)n1 (racemic) [Example 88, (rac)-4-(2-Ethoxy-4-fluorophenyl)-N-{3-[(S-methylsulfonimidoyl)methyl]phenyl}-1,3,5-triazin-2-amine] | IC50 ([3]; Homo sapiens, HeLa): 700 nM; IC50 [4, 8]: 890 nM; IC50 [5, 9]: 730 nM; IC50 [6, 10]: 780 nM; IC50 [7, 11]: 810 nM
 | 850 nM |  | 120 µg/mL (≈ 296 µM) | COc1cc(F)ccc1-c1ncnc(Nc2cc(F)cc(CS(C)(=N)=O)c2)n1 (single isomer, unassigned) [Example 54, 4-(4-Fluoro-2-methoxyphenyl)-N-{3-fluoro-5-[(S-methylsulfonimidoyl)methyl]phenyl}-1,3,5-triazin-2-amine] | 
29 nM | 2300 nM | 1100 nM | 104 µg/mL (≈ 250 µM) | CCCOc1cc(F)ccc1-c1ncnc(Nc2cccc(CS(C)(=N)=O)c2)n1 (racemic) [Example 91, (rac)-4-(4-Fluoro-2-propoxyphenyl)-N-{3-[(S-methylsulfonimidoyl)methyl]phenyl}-1,3,5-triazin-2-amine] | 
110 nM | 5600 nM |  |  | COc1ccc(F)cc1-c1ncnc(Nc2cccc(CS(C)(=N)=O)c2)n1 (single isomer, unassigned) [Example 23, 4-(5-Fluoro-2-methoxyphenyl)-N-{3-[(S-methylsulfonimidoyl)methyl]phenyl}-1,3,5-triazin-2-amine] | Thermodynamic solubility in water at pH 6.5 [2]: 888 mg/l
29 nM | 1500 nM | 1100 nM | 819 µg/mL (≈ 2060 µM) | CS(=N)(=O)Cc1cccc(Nc2ncnc(-c3cccc4c3OCCO4)n2)c1 (single isomer, unassigned) [Example 39, 4-(2,3-Dihydro-1,4-benzodioxin-5-yl)-N-{3-[(S-methylsulfonimidoyl)methyl]phenyl}-1,3,5-triazin-2-amine] | 
 | 670 nM |  | 1000 µg/mL (≈ 2530 µM) | CS(=N)(=O)Cc1cccc(Nc2ncnc(-c3cccc4c3OCCC4)n2)c1 (single isomer, unassigned) [Example 31, 4-(3,4-Dihydro-2H-chromen-8-yl)-N-{3-[(S-methylsulfonimidoyl)methyl]phenyl}-1,3,5-triazin-2-amine] | 
 | 1600 nM |  |  | CS(=N)(=O)Cc1cccc(Nc2ncnc(-c3cccc4c3OCCC4)n2)c1 (single isomer, unassigned) [Example 32, 4-(3,4-Dihydro-2H-chromen-8-yl)-N-{3-[(S-methylsulfonimidoyl)methyl]phenyl}-1,3,5-triazin-2-amine] | Thermodynamic solubility in water at pH 6.5 [2]: 1000 mg/l
7 nM | 650 nM |  | 88 µg/mL (≈ 213 µM) | COc1cc(F)ccc1-c1ncnc(Nc2cccc(CS(C)(=O)=NC#N)c2)n1 (single isomer, unassigned) [Example 49, [(3-{[4-(4-fluoro-2-methoxyphenyl)-1,3,5-triazin-2-yl]amino}benzyl)(methyl)oxido-λ^6-sulfanylidene]cyanamide] | 
25 nM | 1800 nM |  |  | CS(=N)(=O)Cc1cccc(Nc2ncnc(-c3cccc4c3OCCO4)n2)c1 (single isomer, unassigned) [Example 40, 4-(2,3-Dihydro-1,4-benzodioxin-5-yl)-N-{3-[(S-methylsulfonimidoyl)methyl]phenyl}-1,3,5-triazin-2-amine] | IC50 [1]: 1100 nM; Thermodynamic solubility in water at pH 6.5 [2]: 865 mg/l
28 nM | 1300 nM | 1100 nM | 130 µg/mL (≈ 321 µM) | COc1cc(F)c(F)cc1-c1ncnc(Nc2cccc(CS(C)(=N)=O)c2)n1 (racemic) [Example 10, (rac)-4-(4,5-Difluoro-2-methoxyphenyl)-N-{3-[(S-methylsulfonimidoyl)methyl]phenyl}-1,3,5-triazin-2-amine] | 
3 nM | 680 nM | 560 nM |  | CS(=N)(=O)Cc1cccc(Nc2ncnc(-c3ccc(F)cc3OCc3ccc(Cl)cc3)n2)c1 (racemic) [Example 87, (rac)-4-{2-[(4-Chlorobenzyl)oxy]-4-fluorophenyl}-N-{3-[(S-methylsulfonimidoyl)methyl]phenyl}-1,3,5-triazin-2-amine] | IC50 ([3]; Homo sapiens, HeLa): 450 nM; IC50 [4, 8]: 570 nM; IC50 [5, 9]: 610 nM; IC50 [6, 10]: 800 nM; IC50 [7, 11]: 590 nM
6 nM | 410 nM | 370 nM |  | CS(=N)(=O)Cc1cccc(Nc2ncnc(-c3ccc(F)cc3OCc3ccc(F)cc3)n2)c1 (racemic) [Example 56, (rac)-4-{4-Fluoro-2-[(4-fluorobenzyl)oxy]phenyl}-N-{3-[(S-methylsulfonimidoyl)methyl]phenyl}-1,3,5-triazin-2-amine] | IC50 ([3]; Homo sapiens, HeLa): 780 nM; IC50 [4, 8]: 350 nM; IC50 [5, 9]: 370 nM; IC50 [6, 10]: 860 nM; IC50 [7, 11]: 470 nM
3 nM | 230 nM | 110 nM |  | CS(=N)(=O)Cc1cccc(Nc2ncnc(-c3ccc(F)cc3OCc3cc(F)cc(Cl)c3)n2)c1 (racemic) [Example 94, (rac)-4-{2-[(3-Chloro-5-fluorobenzyl)oxy]-4-fluorophenyl}-N-{3-[(S-methylsulfonimidoyl)methyl]phenyl}-1,3,5-triazin-2-amine] | IC50 ([3]; Homo sapiens, HeLa): 190 nM; IC50 [4, 8]: 200 nM; IC50 [5, 9]: 140 nM; IC50 [6, 10]: 220 nM; IC50 [7, 11]: 180 nM
3 nM | 220 nM |  |  | CS(=N)(=O)Cc1cccc(Nc2ncnc(-c3ccc(F)cc3OCc3ccnc(F)c3)n2)c1 (single isomer, unassigned) [Example 84, 4-{4-Fluoro-2-[(2-fluoropyridin-4-yl)methoxy]phenyl}-N-{3-[(S-methylsulfonimidoyl)methyl]phenyl}-1,3,5-triazin-2-amine] | IC50 [1]: 120 nM; IC50 [3]: 340 nM; IC50 ([4]; NCI-H460 cells): 180 nM; IC50 ([5]; DU145 cells): 180 nM; IC50 ([6]; Caco-2 cells): 180 nM; IC50 ([7]; B16F10 cells): 210 nM
